Source: publication PMC3679022, “A Cancer Specific Cell-Penetrating Peptide, BR2, for the Efficient Delivery of an scFv into Cancer Cells” (PLoS ONE, 2013)
Residues, ends and D or L forms follow the SMILES beside them.

Assays:
human erythrocytes = assay type: cell-based; details: 25 µM, pH 7.4
Procedure: Hemolytic activity was assayed as described by Aboudy et al. with slight modifications; 3 ml of freshly prepared human erythrocytes was washed with isotonic PBS, pH 7.4, until the color of the supernatant turned clear. The washed erythrocytes were then diluted to a final volume of 20 ml with the same buffer. Peptide samples (10 µl), serially diluted in PBS, were added to 190 µl of the cell suspension in microcentrifuge tubes. Following gentle mixing, the tubes were incubated at 37°C for 30 min and then centrifuged at 4,000×g for 5 min. The supernatant (100 µl) was removed to a new tube and the absorbance at 567 nm was determined. The relative optical density, as compared with that of the cell suspension treated with 0.2% Triton X-100, was defined as percentage of hemolysis. The hemolysis percentage was calculated using the following equation: percentage hemolysis = [(Abs 567 nm in the peptide solution – Abs 567 nm in PBS)/(Abs 567 nm in 0.2% Triton X-100 – Abs 567 nm in PBS)]×100.
(§1) (B,C) In vitro cytotoxicity of peptides.

HeLa cells = assay type: cell-based, human; details: FACS
Procedure: To evaluate the internalization of FITC-labeled peptides, HeLa cells were seeded onto 12-well plates at a density of 2×10^5 cells per well and incubated for 24 h. FITC-labeled peptides, at various concentrations ranging from […], were then incubated with the cells for 30 min at 37°C. To compare the cellular uptake of peptides, cancer and normal cells were treated with FITC-labeled peptides (each, 10 µM) and incubated for 30 min at 37°C. Following the incubation, cells were washed three times with ice-cold PBS to remove excess extracellular complexes. Next, the cells were treated with trypsin (1 mg/ml) for 10 min to remove any remaining peptides bound to the cell surface. After trypsinization, the cells were collected by centrifugation (1,000×g for 5 min), resuspended with 500 µl ice-cold 2% FBS/PBS containing propidium iodide (PI), and then immediately analyzed (10,000 events/sample) by fluorescence activated cell sorting (FACS).
To understand further the cell-penetrating mechanism of peptides, the effects of temperature and metabolic inhibitors were examined. To elucidate the temperature dependency, HeLa cells were incubated at 4°C for 30 min prior to the addition of the peptides. Next, cells were treated with FITC-labeled peptides (each, 5 µM) at 4°C for 30 min. For the energy-depletion study, HeLa cells were preincubated with sodium azide (NaN3, 10 mM) at 37°C for 1 h and then incubated with FITC-labeled peptides (each, 5 µM) at 37°C for 30 min.
To study the role of endocytosis in peptide uptake, cells were pretreated with several endocytosis inhibitors at 37°C for 1 h: (i) amiloride (5 mM), which is known to block macropinocytosis by inhibiting a sodium channel; (ii) nocodazole (100 ng/ml), which inhibits the clathrin-mediated pathway; and (iii) methyl-ß-cyclodextrin (MßCD, 5 mM), which inhibits lipid raft-mediated processes by depleting cholesterol from the plasma membrane. All inhibitors were purchased from Sigma (St. Louis, MO).
To examine the effects of negatively charged components on the cell surface for peptide internalization, HeLa cells were pretreated with gangliosides (monosialoganglioside GM3 from canine blood), heparin sulfate, or sialic acid (Neu5Ac, all from Sigma) (20 µg/ml) for 30 min. For the inhibition of ganglioside biosynthesis, cells were pretreated with D-threo-1-phenyl-2-hexadecanoyl amino-3-morpholino-1-propanol (PPMP, 5 µM) for 48 h.
For all of these experimental conditions, flow cytometry analyses were performed with live cells using a Becton Dickinson FACSCalibur flow cytometer (BD Biosciences, San Diego, CA). In each case, the fluorescence of 10,000 viable cells was acquired. Viable cells were gated based on a sideward and forward scatter. For data analysis, WinMDI software (Joe Trotter, Scripps Research Institute, La Jolla, CA) was used. The statistical significance was evaluated by Student’s t-test at a 95% confidence interval.
Figure 2 BR2 specifically penetrates cancer cell membranes in a concentration-dependent manner. (A) Analysis of the cell-penetrating efficiency of each peptide in different cell types by flow cytometry. FITC-labeled Tat, BR1 and BR2 peptides (10 µM) were added to different cell types: HeLa, HCT116 and B16/F10 cancer cells and HaCat, BJ and NIH 3T3 normal cells. After 30 min of incubation at 37°C, the FITC-positive cells were counted by flow cytometry. Values represent the percentage of fluorescence-positive cells in the total cell population. (B) Quantitative assessment of cell penetration of each peptide by flow cytometry. HeLa cells were incubated with FITC-labeled peptides at concentrations of 1, 2, 5, or 10 µM for 30 min at 37°C. Afterwards the cells were washed with cold PBS and harvested and cellular fluorescence was analyzed by flow cytometry. […] Prior to analysis, extracellular fluorescence of surface bound peptides was removed by a trypsin treatment (1 mg/ml for 10 min). […]

[1] = tested on: HCT116 cells (K-ras mutated cells); assay: Cell proliferation assay (MTT); assay type: cell-based, human; set-up: dose or concentration left out as unconfirmed; details: same concentrations as fusion proteins (Fig. S4:), 24 h
Procedure: To assess the anti-proliferative activity of peptides and anti-Ras scFv fusion proteins, HCT116 cells (K-ras mutated cells) were seeded in 96-well plates at a density of 2×10^4 cells/well in 100 µL of DMEM supplemented with 10% FBS and cultured for 24 h at 37°C. […] Cell viability was measured with the 3-(4,5-dimethylthiazol-2-yl)-2,5-diphenyl tetrazolium bromide (MTT) assay using the CellTiter 96® Non-radioactive Cell Proliferation assay kit (Promega, Madison, WI) according to the manufacturer’s instructions. The absorbance of the solution was measured at 570 nm using a Microplate Reader (Bio-Rad). Cell viability was expressed as the percentage of viable cells treated with scFv or peptide-scFv fusion proteins compared to the PBS-treated control (100%). All experiments were done in triplicate.
Figure 4 Intracellular uptake of peptides and anti-Ras scFv fusion proteins and their anti-proliferative activity. […] (B) Protein uptake was analyzed by Western blotting of fractionated lysates from HCT116 cells treated with PBS, anti-Ras scFv, BR2- or Tat-scFv fusion protein (each, 2 µM) at 37°C for 2 h. […] Cell proliferation was determined using the MTT assay. […]
HCT116 cells were seeded in 96-well plates at a density of 2×10^4 cells/well in 100 μl of DMEM supplemented with 10% FBS and cultured for 24 h at 37°C. […] The absorbance of the solution was measured at 570 nm using a Microplate Reader (Bio-Rad). […]

[2] = tested on: normal cells (HaCat, BJ and NIH 3T3); assay: Confocal laser scanning microscopy of FITC-labeled peptide uptake, normal cells; assay type: cell-based, human, mouse; details: FITC-labeled peptide 5 µM, 30 min, 37°C, live unfixed cells
Procedure: (§2) To investigate the cell-penetrating ability and the intracellular distribution of the internalized peptides, live confocal microscopy was performed on three cancer lines (HeLa, HCT116 and B16/F10) and three normal cell lines (HaCat, BJ and NIH 3T3). Briefly, cells (2×10^5) were plated on a glass coverslip placed in a 6-well plate, grown overnight, and then incubated with FITC-labeled peptides (5 µM for each cell line) for 30 min. The cells were then rinsed three times with phosphate buffered saline (PBS, pH 7.4), and mounted on microscope slides with fluorescence mounting solution (Dako Corp, Carpinteria, CA). Colocalization of BR2 with lysosomes was observed by using LysoTracker Red DND-99 (Molecular Probe, Eugene, OR). To avoid the effects of fixation artifacts, involving both methanol and paraformaldehyde, cells were not fixed, [27]. The distribution of FITC-labeled peptides was analyzed using a confocal scanning laser Zeiss LSM 510 microscope (Jena, Germany) equipped with a 40× and 20× objective. Fluorophores were excited with an argon laser (488 nm) for FITC and a HeNe laser (543 nm) for LysoTracker Red.
as §1

[3] = tested on: cancer cells (HeLa, HCT116 and B16/F10); assay: Confocal laser scanning microscopy of FITC-labeled peptide uptake, cancer cells; assay type: cell-based, human, mouse; details: FITC-labeled peptide 5 µM, 30 min, 37°C, live unfixed cells
Procedure: as §2, §1

CC(C)C[C@H](NC(=O)CNC(=O)[C@H](C)NC(=O)[C@@H](N)CCCNC(=N)N)C(=O)N[C@@H](CCC(N)=O)C(=O)N[C@@H](Cc1ccccc1)C(=O)N1CCC[C@H]1C(=O)N[C@H](C(=O)NCC(=O)N[C@@H](CCCNC(=N)N)C(=O)N[C@@H](CC(C)C)C(=O)N[C@@H](CC(C)C)C(=O)N[C@@H](CCCNC(=N)N)C(=O)N[C@@H](CCCNC(=N)N)C(=O)N[C@@H](CC(C)C)C(=O)N[C@@H](CC(C)C)C(=O)N[C@@H](CCCNC(=N)N)C(=O)N[C@@H](CCCNC(=N)N)C(=O)N[C@@H](CC(C)C)C(=O)N[C@@H](CC(C)C)C(=O)N[C@@H](CCCNC(=N)N)C(=O)O)C(C)C [BR3, buforin IIb] (H-RAGLQFPVGRLLRRLLRRLLR-OH)
hemolysis (human erythrocytes): ≥ 5%

RKKRRQRRR [Tat, well-known CPP Tat (49–57), reference compound]
decrease of cellular uptake at 4°C compared to 37°C (HeLa cells; FITC-labeled peptide 5 µM, 30 min at 4°C after preincubation at 4°C): 31.6%
reduction of uptake by ATP depletion (sodium azide) (HeLa cells; NaN3 10 mM preincubation 1 h 37°C, then FITC-labeled peptide 5 µM 30 min 37°C): 42.5%
effect of ganglioside synthesis inhibitor PPMP on peptide uptake (HeLa cells; PPMP 5 µM pretreatment 48 h): not
effect of exogenous gangliosides on peptide penetration (HeLa cells; gangliosides (GM3) 20 µg/ml, 30 min): not affected
effect of exogenous heparin on peptide uptake (HeLa cells; heparin 20 µg/ml, 30 min): severely reduced
effect of exogenous sialic acids on peptide penetration (HeLa cells; sialic acid (Neu5Ac) 20 µg/ml, 30 min): not affected
anti-proliferative activity of peptide alone [1]: did not show any detectable inhibitions

RAGLQFPVGRLLR [BR1]
cellular uptake (confocal microscopy) [2]: negligible cellular uptake levels
cellular uptake (confocal microscopy) [3]: negligible cellular uptake levels
